{
  "source": "patent US9023987B2",
  "about": "“Cell-permeable peptide” (Seoul National University R&DB Foundation, priority 2010, dated 2015)",
  "key": {"[1]": {"tested_on": "human mesenchymal stem cells (hMSC)", "test": "Cell differentiation ability by Alizarin red S staining", "format": "cell-based", "details": "10 mM, hard tissue-forming medium, 14 days, compared with PBS; FIG. 4A a-c", "experimental": "In order to confirm cell differentiation ability of the cell permeable peptide-bone differentiation inducing sequence conjugate by the amount of phosphorylated calcium, human mesenchymal stem cells (hMSC) were seeded in a 24-well plate at 1×10^3/well, and then treated with the cell permeable peptide-bone differentiation inducing sequence conjugate synthesized from Example 1 and the bone differentiation inducing sequence of Comparative Example 2 of […] for each, and then incubated in a hard tissue-forming medium for 14 days. The hard tissue-forming medium contained an MSCBM medium containing 15% FBS (fetal bovine serum), […] of L-ascorbic acid, 10^−7 M dexamethasone, 1% antibiotic-antimycotic solution, and 10 mM beta-glycerol phosphate. After completion of the incubation, the medium was removed, and then the cells were washed with phosphate buffer solution (PBS) twice. The cells were fixed using 90% ethanol at 4° C. for 15 minutes, followed by washing with distilled water twice, and then stained with 2% Alizarin red S Solution (pH 4.2; Alizarin red S powder, Junsei, JAPAN)."}, "[2]": {"tested_on": "human mesenchymal stem cells (hMSC)", "test": "Cell permeability by fluorescence imaging (confocal scanning microscope)", "format": "cell-based", "details": "FITC/fluorescence-labeled, FIG. 3A, FIG. 7", "experimental": "The domains synthesized in Example 1 and Comparative Examples 1 and 2 were labeled with a fluorescent material in order to measure cell permeability. 10 equivalents of fluorescein isothiocyanate (FITC) was bound to N-terminals of the synthesized domains by using triethylamine (1 ml per 1 g of resin). The synthesis of the peptide was confirmed by measuring the molecular weight thereof through MALDI-TOF.\nIn order to measure the cell permeability of the cell permeable peptide-bone differentiation inducing sequence conjugate, after sterile slide glass was input in a 6-well plate and 2×10^4 human mesenchymal stem cells (hMSC) were plated in each well, the cells were cultured in a general medium for 20 hours (overnight incubation). Then the cells was cultured in an hMSC basal medium (MSCBM, LONZA, USA) containing 0.5% fetal bovine serum (FBS, GIBCO, USA) for 20 hours (overnight starvation). […] fluorescence labeled cell permeable peptide-bone differentiation inducing sequence conjugate and […] fluorescence labeled bone differentiation inducing sequence that were obtained by binding FITC (SIGMA, USA) N-terminals of the cell permeable peptide-bone differentiation inducing sequence conjugate synthesized by the method in Example 1 and the domain in Comparative Example 2 to synthesize the fluorescence label conjugate and fluorescence label domain, followed by isolation and purification, were injected into each well and washed with phosphate buffer solution (PBS) two times after 20 minutes and 80 minutes of injection. The resultants was observed using a confocal scanning microscope (IX 70, Olympus Co., Tokyo, Japan)."}, "[3]": {"tested_on": "human mesenchymal stem cells (hMSC)", "test": "Cell differentiation ability by alkaline phosphatase (ALP) staining", "format": "cell-based", "design": "dose or concentration left out as unconfirmed", "details": "hard tissue-forming medium, 14 days, compared with PBS; FIG. 4A d-f", "experimental": "In order to detect alkaline phosphate (ALP), which is a label material shown at the initial stage of bone differentiation, for cell differentiation ability of the cell permeable peptide-bone differentiation inducing sequence conjugate, human mesenchymal stem cells (hMSC) were seeded in a 24-well plate at 1×10^3/well, and then treated with the cell permeable peptide-bone differentiation inducing sequence conjugate synthesized from Example 1 and the bone differentiation inducing sequence of Comparative Example 2 of […] for each, and then incubated in a hard tissue forming medium for 14 days. The hard tissue-forming medium contained an MSCBM medium containing 15% FBS (fetal bovine serum), […] of L-ascorbic acid, 10^−7 M dexamethasone, 1% antibiotic-antimycotic solution, and 10 mM beta-glycerol phosphate. After completion of the incubation, the medium was removed, and then the cells were washed with phosphate buffer solution (PBS) twice. The cells were fixed with 10% NBF at room temperature for 20 minutes, and then washed with a phosphate buffer solution (PBS) twice. Then, staining was conducted using the Alkaline phosphatase detection kit (Millipore, USA) by the experiment method recommended by the manufacture."}, "ALP, OCN, and RUNX2": {"tested_on": "ALP, OCN, and RUNX2", "test": "Bone differentiation marker genes by quantitative real-time PCR and electrophoresis", "format": "cell-based, human", "details": "EtBr agarose gel, compared with PBS; FIG. 4C", "experimental": "In order to confirm cell differentiation ability of the cell permeable peptide-bone differentiation inducing sequence conjugate through bone tissue differentiation marker genes, human mesenchymal stem cells (hMSC) were seeded in each well of a 6 cm-dish at 1×10^5/well, and then incubated in a general medium for 20 hours (overnight) for cell stabilization. After 20 hours of incubation, the cells were treated with the cell permeable peptide-bone differentiation inducing sequence conjugate and 10 μm of the bone differentiation inducing sequence of Comparative Example 2 for 72 hours.\nAfter that, the entire RNA was separated from the treated cells, using a Trizol® reagent (reagent for isolating RNA from cell and tissue samples) (Invitrogen Life Technologies, USA), according to the manufacturer's instructions, and the amount and purity of the entire RNA were measured by the spectrophotometer. […]\nIn order to carry out the quantitative real-time PCR, cDNA to be used as a template and primers were mixed, like in RT-PCR, and then 10 μl of SYBR® Green Premix Ex Taq (TaKaRa, JAPAN) was mixed therewith to prepare a reaction material. […] The CT value of each gene was […] the CT value for housekeeping GAPDH gene and the value calculated based on the negative control was taken, so that comparison in the degree of mRNA expression was conducted (Shin et al., (2007) Plant J. 49, 981-994)."}},
  "data": [
    {"substance": "NH2-GAPPPADSAP-SSRKKNPNCRRH-C-COONH2 (H-GAPPPADSAPSSRKKNPNCRRHC-NH2; cysteine pairing not given here) [Example 1]", "values": [
      {"measurement": "differentiation into osteoblast, Alizarin red S staining of phosphorylated calcium", "setting": "[1]", "result": "relatively strong staining degree of phosphorylated calcium"},
      {"measurement": "intracellular fluorescence after 20 minutes (confocal)", "setting": "[2]; 20 minutes", "result": "fluorescent particles were observed in the cytoplasm"},
      {"measurement": "intracellular fluorescence after 80 minutes (confocal)", "setting": "[2]; 80 minutes", "result": "clearly observed in the cytoplasm and nucleus"},
      {"measurement": "differentiation into osteoblast, alkaline phosphatase staining", "setting": "[3]", "result": "relatively strong staining degree of alkaline phosphatase"},
      {"measurement": "bands of ALP, OCN, and RUNX2 PCR products (electrophoresis)", "setting": "ALP, OCN, and RUNX2", "result": "noticeably increased bands"}
    ]}
  ]
}
